According to patent US20180148418A1, “AMIDO-SUBSTITUTED CYCLOHEXANE DERIVATIVES” (Bayer Pharma Aktiengesellschaft, priority 2015, published 2018):

Biological target: T1, TNKS2 (Homo sapiens, UniProt Q9H2K2)
T1 construct: purchased BPS Bioscience, San Diego, USA 80572 (TNKS2 Histone Ribosylation Assay Kit)
T1 sequence (Q9H2K2 1-1166): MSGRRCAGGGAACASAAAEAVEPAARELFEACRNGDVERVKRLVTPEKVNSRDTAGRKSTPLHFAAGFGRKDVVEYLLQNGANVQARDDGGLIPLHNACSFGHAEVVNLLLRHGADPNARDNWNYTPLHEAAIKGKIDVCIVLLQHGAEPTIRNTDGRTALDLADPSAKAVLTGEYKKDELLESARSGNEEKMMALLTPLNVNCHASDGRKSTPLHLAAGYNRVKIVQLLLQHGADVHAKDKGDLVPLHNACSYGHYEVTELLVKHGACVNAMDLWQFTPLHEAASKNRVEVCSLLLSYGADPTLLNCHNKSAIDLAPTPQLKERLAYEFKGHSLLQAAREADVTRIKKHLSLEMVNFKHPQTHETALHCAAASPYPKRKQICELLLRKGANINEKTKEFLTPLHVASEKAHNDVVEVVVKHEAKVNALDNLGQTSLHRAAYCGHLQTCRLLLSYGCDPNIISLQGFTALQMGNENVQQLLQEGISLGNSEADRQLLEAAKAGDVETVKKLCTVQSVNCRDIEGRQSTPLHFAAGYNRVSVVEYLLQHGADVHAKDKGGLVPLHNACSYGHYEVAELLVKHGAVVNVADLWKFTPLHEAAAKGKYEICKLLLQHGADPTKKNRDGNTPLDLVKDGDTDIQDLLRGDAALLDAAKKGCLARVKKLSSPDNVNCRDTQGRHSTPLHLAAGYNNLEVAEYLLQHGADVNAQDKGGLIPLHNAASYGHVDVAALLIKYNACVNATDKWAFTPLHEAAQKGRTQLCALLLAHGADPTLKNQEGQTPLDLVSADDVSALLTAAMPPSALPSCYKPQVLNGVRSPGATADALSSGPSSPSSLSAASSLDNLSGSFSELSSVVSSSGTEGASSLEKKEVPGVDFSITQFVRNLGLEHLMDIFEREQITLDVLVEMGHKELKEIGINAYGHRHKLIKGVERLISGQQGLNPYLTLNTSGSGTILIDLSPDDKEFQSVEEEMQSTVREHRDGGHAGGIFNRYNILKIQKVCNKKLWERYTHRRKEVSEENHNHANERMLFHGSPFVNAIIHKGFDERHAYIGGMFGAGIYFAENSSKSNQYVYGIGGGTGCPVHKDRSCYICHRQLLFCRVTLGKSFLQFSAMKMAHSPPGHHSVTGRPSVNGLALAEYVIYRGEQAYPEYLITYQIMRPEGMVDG
Experiment: TNKS2 Assay B (auto-parsylation, [3H]-NAD+ SPA)
Type: biochemical
Conditions: 6 nM TNKS2, auto-parsylation, over night at room temperature

SMILES | IC50 [nM]
O=C(N[C@H]1CC[C@H](C(=O)Nc2c(F)cc(F)cc2Cl)CC1)c1cnc2cccnn12 [Example 133, N-{trans-4-[(2-chloro-4,6-difluorophenyl)carbamoyl]cyclohexyl}imidazo[1,2-b]pyridazine-3-carboxamide] | 55
Cc1cc(C)n2ncc(C(=O)N[C@H]3CC[C@H](C(=O)Nc4cc(F)c(F)cc4Cl)CC3)c2n1 [Example 134, N-{trans-4-[(2-chloro-4,5-difluorophenyl)carbamoyl]cyclohexyl}-5,7-dimethylpyrazolo[1,5-a]pyrimidine-3-carboxamide] | 33
Cc1cc(C)n2ncc(C(=O)N[C@H]3CC[C@H](C(=O)Nc4c(F)cc(F)cc4Cl)CC3)c2n1 [Example 135, N-{trans-4-[(2-chloro-4,6-difluorophenyl)carbamoyl]cyclohexyl}-5,7-dimethylpyrazolo[1,5-a]pyrimidine-3-carboxamide] | 29
O=C(N[C@H]1CC[C@@]2(CCN(c3ccc(F)cc3Cl)C2=O)CC1)c1cnn2cccnc12 [Example 136, N-[(trans)-2-(2-chloro-4-fluorophenyl)-1-oxo-2-azaspiro[4.5]dec-8-yl]pyrazolo[1,5-a]pyrimidine-3-carboxamide] | 4.7
Cc1cnc2c(C(=O)N[C@H]3CC[C@@]4(CCN(c5ccc(F)cc5Cl)C4=O)CC3)cnn2c1 [Example 137, N-[(trans)-2-(2-chloro-4-fluorophenyl)-1-oxo-2-azaspiro[4.5]dec-8-yl]-6-methylpyrazolo[1,5-a]pyrimidine-3-carboxamide] | 3.3
O=C(N[C@H]1CC[C@@]2(CCN(c3ccc(F)cc3Cl)C2=O)CC1)c1cnc2cccnn12 [Example 138, N-[(trans)-2-(2-chloro-4-fluorophenyl)-1-oxo-2-azaspiro[4.5]dec-8-yl]imidazo[1,2-b]pyridazine-3-carboxamide] | 7
Cc1cc(C)n2ncc(C(=O)N[C@H]3CC[C@@]4(CCN(c5ccc(F)cc5Cl)C4=O)CC3)c2n1 [Example 139, N-[(trans)-2-(2-chloro-4-fluorophenyl)-1-oxo-2-azaspiro[4.5]dec-8-yl]-5,7-dimethylpyrazolo[1,5-a]pyrimidine-3-carboxamide] | 4.2
CNC(=O)c1[nH]cnc1C(=O)N[C@H]1CC[C@@]2(CCN(c3ccc(F)cc3Cl)C2=O)CC1 [Example 140, N^4-[(trans)-2-(2-chloro-4-fluorophenyl)-1-oxo-2-azaspiro[4.5]dec-8-yl]-N^5-methyl-1H-imidazole-4,5-dicarboxamide] | 6.9
CCNC(=O)c1[nH]cnc1C(=O)N[C@H]1CC[C@@]2(CCN(c3ccc(F)cc3Cl)C2=O)CC1 [Example 141, N^4-[(trans)-2-(2-chloro-4-fluorophenyl)-1-oxo-2-azaspiro[4.5]dec-8-yl]-N^5-ethyl-1H-imidazole-4,5-dicarboxamide] | 6.5
CNC(=O)c1nc[nH]c1C(=O)N[C@H]1CC[C@H](C(=O)Nc2cc(C(F)(F)F)ccc2Cl)CC1 [Example 142, N^5-(trans-4-{[2-chloro-5-(trifluoromethyl)phenyl]carbamoyl}cyclohexyl)-N^4-methyl-1H-imidazole-4,5-dicarboxamide] | 80
COCC(C)NC(=O)c1nc[nH]c1C(=O)N[C@H]1CC[C@H](C(=O)Nc2cc(C(F)(F)F)ccc2Cl)CC1 (stereo partly drawn) [Example 143, N^5-(trans-4-{[2-chloro-5-(trifluoromethyl)phenyl]carbamoyl}cyclohexyl)-N^4-(1-methoxypropan-2-yl)-1H-imidazole-4,5-dicarboxamide] | 150
COC(C)(C)CNC(=O)c1nc[nH]c1C(=O)N[C@H]1CC[C@H](C(=O)Nc2cc(C(F)(F)F)ccc2Cl)CC1 [Example 144, N^5-(trans-4-{[2-chloro-5-(trifluoromethyl)phenyl]carbamoyl}cyclohexyl)-N^4-(2-methoxy-2-methylpropyl)-1H-imidazole-4,5-dicarboxamide] | 230
